These results are taken from PMC10798532, “Enhanced catalytic performance of penicillin G acylase by covalent immobilization onto functionally-modified magnetic Ni0.4Cu0.5Zn0.1Fe2O4 nanoparticles” (PLOS ONE, 2024).

Counter-ions that a name gives are not always drawn.

The experiment relates to T1, Penicillin G acylase (PGA).
T1 construct: gene pac; alpha and beta subunits arise from one precursor; E. coli is only a guess (docking used PDB 1GM8)
The experiment can be described thus: initial hydrolysis rates, Lineweaver-Burk; 6-APA by PDAB colorimetry at […] nm. The class given is biochemical. Particulars: free enzyme; 20 °C; PBS, pH of kinetic run not printed (optimum pH 8.0); substrate 0.01-0.05 mol/L.

One may read the Km as the substrate concentration at which the rate is half of its maximum. Take `CC1(C)S[C@@H]2[C@H](NC(=O)Cc3ccccc3)C(=O)N2[C@H]1C(=O)O` [Penicillin G potassium salt]: the Michaelis-Menten constant (Km) was found to be 22.7 mM.
